Data: PMC7558026, “Exploring and applying the substrate promiscuity of a C-glycosyltransferase in the chemo-enzymatic synthesis of bioactive C-glycosides” (Nature Communications, 2020)
Where “and” joins values, the source holds several entries; their conditions need not be identical. Equal entries are not always repeated.

Assays:
SGLT1 = target: T1, SGLT1 (Homo sapiens, UniProt P13866); assay: 1-NBDG uptake in HEK293 cells stably expressing SGLT1; assay type: cell-based; settings: HEK293, compound at 10 μM; triplicate; read-out: SGLT1 inhibitory rates
T1 construct: The full-length SGLT1 cDNA was obtained by PCR with forward primer; expressed in transfected cells
T1 sequence (P13866 1-664): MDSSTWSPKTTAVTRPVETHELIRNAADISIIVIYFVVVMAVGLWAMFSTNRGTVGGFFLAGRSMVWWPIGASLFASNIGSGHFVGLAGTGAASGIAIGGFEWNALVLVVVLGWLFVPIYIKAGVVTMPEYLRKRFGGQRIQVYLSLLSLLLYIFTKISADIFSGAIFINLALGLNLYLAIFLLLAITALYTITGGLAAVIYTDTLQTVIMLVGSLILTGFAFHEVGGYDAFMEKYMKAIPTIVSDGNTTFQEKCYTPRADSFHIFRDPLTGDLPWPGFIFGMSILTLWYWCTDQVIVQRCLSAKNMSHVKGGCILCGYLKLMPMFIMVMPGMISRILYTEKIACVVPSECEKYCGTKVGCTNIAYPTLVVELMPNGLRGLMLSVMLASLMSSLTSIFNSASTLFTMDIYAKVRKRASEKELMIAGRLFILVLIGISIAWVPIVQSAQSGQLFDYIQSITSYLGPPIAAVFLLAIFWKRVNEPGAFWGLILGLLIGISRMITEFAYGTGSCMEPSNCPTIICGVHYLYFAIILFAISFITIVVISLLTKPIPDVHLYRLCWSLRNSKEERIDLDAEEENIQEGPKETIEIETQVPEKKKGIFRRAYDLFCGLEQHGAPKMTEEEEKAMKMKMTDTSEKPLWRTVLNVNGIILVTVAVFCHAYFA

SGLT2 = target: T2, SGLT2 (Homo sapiens, UniProt P31639); assay: 1-NBDG uptake in HEK293 cells stably expressing SGLT2; assay type: cell-based; settings: triplicate; for inhibition at 10 µM: HEK293, compound at 10 μM, read-out: SGLT2 inhibitory rates; for SGLT2 inhibitory rates: compound at 10 μM, 10 µM
T2 construct: Human full-length SGLT2 cDNA (NM_003041.3) was synthesized; expressed in transfected cells; host or cells: HEK293, retroviral transduction with pMSCVpuro-SGLT2, puromycin selected
T2 sequence (P31639 1-672): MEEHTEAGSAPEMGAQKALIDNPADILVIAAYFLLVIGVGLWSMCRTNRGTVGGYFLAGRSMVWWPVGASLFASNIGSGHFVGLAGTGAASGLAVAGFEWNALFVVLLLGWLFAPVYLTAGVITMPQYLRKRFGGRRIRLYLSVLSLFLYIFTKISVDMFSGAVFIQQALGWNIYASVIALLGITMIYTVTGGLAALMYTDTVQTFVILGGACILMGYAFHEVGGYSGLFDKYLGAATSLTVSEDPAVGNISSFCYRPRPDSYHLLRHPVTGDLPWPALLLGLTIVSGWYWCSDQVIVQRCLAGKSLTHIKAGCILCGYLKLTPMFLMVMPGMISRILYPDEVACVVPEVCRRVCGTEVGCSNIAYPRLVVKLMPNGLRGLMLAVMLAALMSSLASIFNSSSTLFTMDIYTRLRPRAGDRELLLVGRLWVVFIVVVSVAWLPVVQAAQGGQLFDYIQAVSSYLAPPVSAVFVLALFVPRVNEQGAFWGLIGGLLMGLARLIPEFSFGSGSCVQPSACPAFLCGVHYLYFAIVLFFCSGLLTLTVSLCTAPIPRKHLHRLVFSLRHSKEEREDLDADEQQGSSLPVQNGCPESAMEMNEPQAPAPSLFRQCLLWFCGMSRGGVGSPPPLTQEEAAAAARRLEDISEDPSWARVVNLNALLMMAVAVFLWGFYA

[1] = system: Influenza A/WSN/33 (H1N1); assay: microbe, parasite or virus in culture; assay type: cell-based; settings: final concentration 20 μM, — = no inhibition activity, read-out: Inhibitory Rates, anti-influenza A virus activity
KKAy mice [2] = assay: Hypoglycemic effect in T2DM KKAy mice, blood glucose; assay type: in vivo; settings: individual mice
Procedure: (§1) To evaluate the hypoglycemic effect of 46a in type 2 diabetes mellitus (T2DM), female KKAy mice weighing 42–48 g were obtained from the Animal Center of the Institute of Laboratory Animal Sciences, Chinese Academy of Medical Sciences and Peking Union Medical College. […] Blood samples were collected at 1, 2, 4, 6, 8, 24, and 48 h after treatment. […] The glucose levels in urine 4 h and 6 h after administration were also determined using a Biosen C-Line Glucose analyzer (EKF Diagnostics, Germany).

alloxan-induced DM mice = assay: Hypoglycemic effect in alloxan-induced diabetic mellitus (DM) mice; assay type: in vivo; settings: individual mice
Procedure: Type 1 diabetes mellitus (T1DM) mice were established by intravenous injection of alloxan tetrahydrate (68 mg kg^‒1 BW). […] Nonfasting blood glucose was kinetically monitored at 1, 2, 4, 6, 8, 24, and 48 h after treatment with 46a.

KKAy mice [3] = assay: Urinary glucose excretion in T2DM KKAy mice; assay type: in vivo; settings: 46a 100 mg kg^‒1 or dapagliflozin 5mg/kg, individual mice
Procedure: as §1

ICR mice = assay: Oral glucose-tolerance test (OGTT) in normal ICR mice; assay type: in vivo; settings: individual mice
Procedure: The hypoglycemic effect of 46a was firstly evaluated by oral glucose-tolerance test (OGTT) in mice with normal blood glucose levels. Male Institute of Cancer Research (ICR) mice weighing 24–26 g were obtained from Beijing Vital River Laboratory Animal Technology Co., Ltd (Beijing, China) and divided into three groups (n = 7–8). […] After 2 h of fasting, blood samples were collected from the tails for determination of baseline values of blood glucose (0 min). The mice were then orally administered glucose (2 g kg^‒1 BW), and blood samples were collected at 15, 30, 60, and 120 min. A glucose oxidase (GOD) assay was used for blood glucose-level measurement. The values of area under the glucose-time curve (AUC) were calculated.

`OCC1OC(c2c(O)cc(O)c(Cc3ccc4nccnc4c3)c2O)C(O)C(O)C1O` (centres unmarked) [Compound 44a] showed an inhibition at 10 µM (SGLT1) of 31.8%, an inhibition at 10 µM (SGLT2) greater than 96% and an SGLT2 inhibitory rates (SGLT2) of 96.6%. It also gave an inhibition at 20 µM [1] of 82.8%.

In the case of `CCOc1ccc(Cc2cc([C@@H]3O[C@H](CO)[C@@H](O)[C@H](O)[C@H]3O)ccc2Cl)cc1` [Dapagliflozin, reference compound], the blood glucose (KKAy mice [2]; 0h, KKAy mice, single dose 46a 100 mg kg^‒1 or dapagliflozin 5 mg kg^‒1) was 376.7 mg/dL and 390 mg/dL and 405.5 mg/dL and 293.3 mg/dL and 575.6 mg/dL and 463.6 mg/dL and 388.1 mg/dL, the blood glucose (KKAy mice [2]; 1h, same doses) was 205.5 mg/dL and 228.8 mg/dL and 391.4 mg/dL and 363.9 mg/dL and 193.8 mg/dL and 248.6 mg/dL and 235.8 mg/dL and the blood glucose (KKAy mice [2]; 2h, same doses) was 279.3 mg/dL and 221.6 mg/dL and 285.4 mg/dL and 256 mg/dL and 184.4 mg/dL and 245.5 mg/dL and 256.8 mg/dL. The blood glucose (KKAy mice [2]; 4h, same doses) was 138 mg/dL and 102 mg/dL and 48.9 mg/dL and 98.1 mg/dL and 137.3 mg/dL and 182.3 mg/dL and 181.7 mg/dL, the blood glucose (KKAy mice [2]; 6h, same doses) was 123.1 mg/dL and 172.3 mg/dL and 164.6 mg/dL and 79.8 mg/dL and 177.1 mg/dL and 134.4 mg/dL and the blood glucose (KKAy mice [2]; 8h, same doses) was 91.6 mg/dL and 196.3 mg/dL and 150.5 mg/dL and 208.1 mg/dL and 124.9 mg/dL and 86.9 mg/dL. The blood glucose (KKAy mice [2]; 24h, same doses) was 254.9 mg/dL and 217.5 mg/dL and 176.2 mg/dL and 237.1 mg/dL and 286.9 mg/dL and 219.8 mg/dL, the blood glucose (KKAy mice [2]; 48h, same doses) was 395.7 mg/dL and 347.1 mg/dL and 229.8 mg/dL and 332.5 mg/dL and 388.1 mg/dL and 274.9 mg/dL and the “OD505nm (nonfasting blood glucose)” value (alloxan-induced DM mice; 0h, alloxan-induced DM mice, single dose 46a 100 mg kg^‒1 or dapagliflozin 5 mg kg^‒1) was 0.567 and 0.574 and 0.561 and 0.564 and 0.434 and 0.496 and 0.426 and 0.589. The “OD505nm (nonfasting blood glucose)” value (alloxan-induced DM mice; 1h, same doses) was 0.393 and 0.333 and 0.301 and 0.52 and 0.314 and 0.35 and 0.222 and 0.29, the “OD505nm (nonfasting blood glucose)” value (alloxan-induced DM mice; 2h, same doses) was 0.27 and 0.388 and 0.281 and 0.364 and 0.279 and 0.346 and 0.193 and 0.231 and the “OD505nm (nonfasting blood glucose)” value (alloxan-induced DM mice; 4h, same doses) was 0.352 and 0.41 and 0.322 and 0.471 and 0.197 and 0.266 and 0.208 and 0.227. For the same molecule, the “OD505nm (nonfasting blood glucose)” value (alloxan-induced DM mice; 8h, same doses) was 0.347 and 0.446 and 0.312 and 0.421 and 0.195 and 0.25 and 0.231 and 0.327, the “OD505nm (nonfasting blood glucose)” value (alloxan-induced DM mice; 24h, same doses) was 0.536 and 0.578 and 0.561 and 0.735 and 0.409 and 0.563 and 0.408 and 0.501 and the “OD505nm (nonfasting blood glucose)” value (alloxan-induced DM mice; 48h, same doses) was 0.513 and 0.594 and 0.579 and 0.796 and 0.531 and 0.647 and 0.477 and 0.584. The inhibition at 10 µM (SGLT1) was 98.4%, the inhibition at 10 µM (SGLT2) was 100% and the SGLT2 inhibitory rates (SGLT2) was 102.4%. The glucose in urine (KKAy mice [3]; 4h) was 13936 mg/dL and 9326 mg/dL and 12440 mg/dL and 15728 mg/dL, the glucose in urine (KKAy mice [3]; 6h) was 15122 mg/dL and 8208 mg/dL and 11640 mg/dL and 11138 mg/dL and the “OD505nm (blood glucose, GOD assay) in OGTT” value (“OD505nm … in OGTT” for short) (ICR mice; 0 min, ICR mice, oral 46a 100 mg kg^‒1 or dapagliflozin 5 mg kg^‒1) was 0.188 and 0.144 and 0.165 and 0.159 and 0.17 and 0.15 and 0.177 and 0.146. For the same molecule, the “OD505nm … in OGTT” value (ICR mice; 15 min after glucose 2 g kg^‒1, oral 46a 100 mg kg^‒1 or dapagliflozin 5 mg kg^‒1) was 0.243 and 0.23 and 0.198 and 0.207 and 0.185 and 0.182 and 0.211 and 0.199, the “OD505nm … in OGTT” value (ICR mice; 30 min after glucose, same doses) was 0.2 (2×) and 0.22 and 0.193 and 0.178 and 0.196 and 0.205 and 0.204 and the “OD505nm … in OGTT” value (ICR mice; 60 min after glucose, same doses) was 0.209 and 0.178 and 0.176 and 0.169 and 0.175 and 0.171 and 0.182 and 0.185. For the same molecule, the “OD505nm … in OGTT” value (ICR mice; 120 min after glucose, same doses) was 0.173 and 0.17 and 0.162 and 0.165 (2×) and 0.166 and 0.157 and 0.167.
